The text below walks through data of patent US8927500B2, “Peptidomimetic macrocycles” (Aileron Therapeutics, Inc., priority 2012, dated 2015).

Where a SMILES comes first, the peptide text is derived from it. Bridges are numbered along the chain shown (N, C = ends). [ ]: non-standard residue; d: D form. Trp(6-Cl) = N[C@@H](Cc1c[nH]c2cc(Cl)ccc12)C(=O)O; Phe(4-COOH) = N[C@@H](Cc1ccc(C(=O)O)cc1)C(=O)O; R8 = C=CCCCCCC[C@@](C)(N)C(=O)O; Cba = N[C@@H](CC1CCC1)C(=O)O; S5 = C=CCCC[C@](C)(N)C(=O)O; Nle = CCCC[C@H](N)C(=O)O Where only a bound is given, the exact number is not on record here.

By IC50 is commonly meant the concentration needed to halve the response being measured. The term Ki denotes a measure of affinity in units of concentration, obtained from inhibition or displacement.

For test [1], the target named is MDM2 (Homo sapiens, UniProt Q00987). As to the kind of experiment: Competitive fluorescence polarization assay for MDM2. The class given is binding. To be noted: competitive FP assay, MDM2; for IC50: read-out: IC50 (MDM2); for Ki: read-out: Ki (MDM2). (In fluorescence polarisation assays a small probe gives low polarisation when free and higher when bound to something large.)
Experimental: Dilute 1 mM (in 100% DMSO) of FAM labeled linear peptide with DMSO to 100 μM (dilution 1:10). Then, dilute from 100 μM to 10 μM with water (dilution 1:10) and then dilute with FP buffer from 10 μM to 40 nM (dilution 1:250). This is the working solution which will be a 10 nM concentration in well (dilution 1:4). […] Then, dilute from 5 mM to 500 μM with H2O (dilution 1:10) and then dilute with FP buffer from 500 μM to 20 μM (dilution 1:25).
Dilute 1 mM (in 100% DMSO) of FAM labeled linear peptide with DMSO to 100 μM (dilution 1:10). Then, dilute from 100 μM to 10 μM with water (dilution 1:10) and then dilute with FP buffer from 10 μM to 40 nM (dilution 1:250). This is the working solution which will be a 10 nM concentration in well (dilution 1:4). […] Dilute 10 mM (in 100% DMSO) with DMSO to 5 mM (dilution 1:2). Then, dilute from 5 mM to 500 μM with H2O (dilution 1:10) and then dilute with FP buffer from 500 μM to 20 μM (dilution 1:25). […] Transfer 10 μl of serial diluted unlabeled peptides to each well which is filled with 20 μl of 300 nM of protein. • 7. Add 10 μl of 10 nM (4×) of FAM labeled peptide into each well and incubate for 3 hr to read.

Test [2] concerns the target T1, MDMX (Homo sapiens, UniProt O15151).
T1 sequence (O15151 1-125): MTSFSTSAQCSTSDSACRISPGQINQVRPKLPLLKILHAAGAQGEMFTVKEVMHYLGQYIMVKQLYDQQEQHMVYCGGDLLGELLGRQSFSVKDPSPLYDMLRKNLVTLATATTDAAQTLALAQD
As to the kind of experiment: Competitive fluorescence polarization assay for MDMX. The class given is binding. To be noted: competitive FP assay; for IC50: read-out: IC50 (MDMX); for Ki: read-out: Ki (MDMX).

MDM2, sequence (Q00987 1-125): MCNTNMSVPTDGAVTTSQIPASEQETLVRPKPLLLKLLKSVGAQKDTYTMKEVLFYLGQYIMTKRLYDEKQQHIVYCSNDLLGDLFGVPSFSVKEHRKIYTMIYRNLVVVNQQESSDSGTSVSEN

On to `CC(=O)N[C@@H](CC(C)C)C(=O)N[C@H](C(=O)N[C@@H](Cc1ccccc1)C(=O)N[C@]1(C)CCCCCCC=CCCC[C@@](C)(C(=O)N[C@@H](CO)C(=O)N[C@@H](C)C(=O)N[C@@H](Cc2ccccc2)C(N)=O)NC(=O)[C@H](CC2CCC2)NC(=O)[C@H](CCC(N)=O)NC(=O)[C@H](CO)NC(=O)[C@H](Cc2c[nH]c3ccccc23)NC(=O)[C@H](Cc2ccc(O)cc2)NC(=O)[C@H](C)NC1=O)[C@@H](C)O` [compound 262] (Ac-LTF[R8]AYWSQ[Cba][S5]SAF-NH2; staple 4-11), for which the IC50 in test [1] lay within 10 to 100 nM; in test [2] it was 100 to 1000 nM. In addition, the Ki in test [1] is less than 10 nM; in test [2], 10 to 100 nM.

Take `CC(=O)N[C@@H](CC(C)C)C(=O)N[C@H](C(=O)N[C@@H](Cc1ccccc1)C(=O)N[C@]1(C)CCCCCCC=CCCC[C@@](C)(C(=O)N[C@@H](CO)C(=O)N[C@@H](C)C(=O)N[C@@H](Cc2ccccc2)C(N)=O)NC(=O)[C@H](CC2CCC2)NC(=O)[C@H](CCC(N)=O)NC(=O)[C@H](Cc2c[nH]c3ccccc23)NC(=O)[C@H](Cc2c[nH]c3ccccc23)NC(=O)[C@H](Cc2ccc(O)cc2)NC(=O)[C@H](C)NC1=O)[C@@H](C)O` [compound 263] (Ac-LTF[R8]AYWWQ[Cba][S5]SAF-NH2; staple 4-11): in test [1], the IC50 was in the range of 10 to 100 nM and the Ki is less than 10 nM. For the same compound, in test [2], the IC50 lay within 100 to 1000 nM and the inhibition constant (Ki) lay within 10 to 100 nM.

In the case of `CC[C@H](C)[C@H](NC(=O)[C@H](C)NC(=O)[C@H](C)NC(=O)[C@]1(C)CCCC=CCCCCCC[C@@](C)(NC(=O)[C@H](Cc2ccccc2)NC(=O)[C@@H](NC(=O)[C@H](CC(C)C)NC(C)=O)[C@@H](C)O)C(=O)N[C@@H](C)C(=O)N[C@@H](Cc2ccc(O)cc2)C(=O)N[C@@H](Cc2c[nH]c3ccccc23)C(=O)N[C@@H](C)C(=O)N[C@@H](CCC(N)=O)C(=O)N[C@@H](CC2CCC2)C(=O)N1)C(=O)N[C@H](C)C(N)=O` [compound 264] (Ac-LTF[R8]AYWAQ[Cba][S5]AAI[dA]-NH2; staple 4-11), in test [1], the IC50 is 10 to 100 nM and the Ki is less than 10 nM. In test [2], the IC50 was in the range of 10 to 100 nM and the Ki lay within 10 to 100 nM.

In the case of `CC[C@H](C)[C@H](NC(=O)[C@H](C)NC(=O)[C@H](C)NC(=O)[C@]1(C)CCCC=CCCCCCC[C@@](C)(NC(=O)[C@H](Cc2ccccc2)NC(=O)[C@@H](NC(=O)[C@H](CC(C)C)NC(C)=O)[C@@H](C)O)C(=O)N[C@@H](C)C(=O)N[C@@H](Cc2ccc(O)cc2)C(=O)N[C@@H](Cc2c[nH]c3cc(Cl)ccc23)C(=O)N[C@@H](C)C(=O)N[C@@H](CCC(N)=O)C(=O)N[C@@H](CC2CCC2)C(=O)N1)C(=O)N[C@H](C)C(N)=O` [compound 266] (Ac-LTF[R8]AY[Trp(6-Cl)]AQ[Cba][S5]AAI[dA]-NH2; staple 4-11), in test [1], the concentration for half-maximal inhibition (IC50) fell in the range of 10 to 100 nM and the Ki is less than 10 nM. In test [2], the IC50 lay in the range of 100 to 1000 nM and the Ki lay within 10 to 100 nM.

Take `CC[C@H](C)[C@H](NC(=O)[C@H](C)NC(=O)[C@H](C)NC(=O)[C@]1(C)CCCC=CCCCCCC[C@@](C)(NC(=O)[C@H](Cc2ccccc2)NC(=O)[C@@H](NC(=O)[C@H](CC(C)C)NC(C)=O)[C@@H](C)O)C(=O)N[C@@H](C)C(=O)N[C@@H](Cc2ccc(C(=O)O)cc2)C(=O)N[C@@H](Cc2c[nH]c3ccccc23)C(=O)N[C@@H](C)C(=O)N[C@@H](CCC(N)=O)C(=O)N[C@@H](CC2CCC2)C(=O)N1)C(=O)N[C@H](C)C(N)=O` [compound 267] (Ac-LTF[R8]A[Phe(4-COOH)]WAQ[Cba][S5]AAI[dA]-NH2; staple 4-11): in test [1], the IC50 lay in the range of 10 to 100 nM and the Ki was less than 10 nM. In test [2], the IC50 was in the range of 10 to 100 nM and the Ki is less than 10 nM.

On to `CCCC[C@H](NC(=O)[C@H](Cc1c[nH]c2ccccc12)NC(=O)[C@H](C)NC(=O)[C@]1(C)CCCC=CCCCCCC[C@@](C)(NC(=O)[C@H](Cc2ccccc2)NC(=O)[C@@H](NC(=O)[C@H](CCC(=O)O)NC(C)=O)[C@@H](C)O)C(=O)N[C@@H](C)C(=O)N[C@@H](Cc2ccc(O)cc2)C(=O)N[C@@H](Cc2c[nH]c3ccccc23)C(=O)N[C@@H](C)C(=O)N[C@@H](CCC(N)=O)C(=O)N[C@@H](CC2CCC2)C(=O)N1)C(=O)N[C@H](C)C(N)=O` [compound 270] (Ac-ETF[R8]AYWAQ[Cba][S5]AW[Nle][dA]-NH2; staple 4-11), for which, in test [1], the IC50 is less than 10 nM and the Ki is less than 10 nM. Moreover, in test [2], the IC50 lay within 10 to 100 nM and the Ki lay in the range of 10 to 100 nM.

As to `CCCC[C@H](NC(=O)[C@H](Cc1c[nH]c2ccccc12)NC(=O)[C@H](C)NC(=O)[C@]1(C)CCCC=CCCCCCC[C@@](C)(NC(=O)[C@H](Cc2ccccc2)NC(=O)[C@@H](NC(=O)[C@H](CC(C)C)NC(C)=O)[C@@H](C)O)C(=O)N[C@@H](CCC(=O)O)C(=O)N[C@@H](Cc2ccc(O)cc2)C(=O)N[C@@H](Cc2c[nH]c3ccccc23)C(=O)N[C@@H](C)C(=O)N[C@@H](CCC(N)=O)C(=O)N[C@@H](CC2CCC2)C(=O)N1)C(=O)N[C@H](C)C(N)=O` [compound 271] (Ac-LTF[R8]EYWAQ[Cba][S5]AW[Nle][dA]-NH2; staple 4-11), in test [1], the IC50 was less than 10 nM and the Ki is less than 10 nM. In addition, in test [2], the IC50 was in the range of 10 to 100 nM and the Ki is less than 10 nM.

For the compound `CCCC[C@H](NC(=O)[C@H](Cc1c[nH]c2ccccc12)NC(=O)[C@H](C)NC(=O)[C@]1(C)CCCC=CCCCCCC[C@@](C)(NC(=O)[C@H](Cc2ccccc2)NC(=O)[C@@H](NC(=O)[C@H](CCC(=O)O)NC(C)=O)[C@@H](C)O)C(=O)N[C@@H](CCC(=O)O)C(=O)N[C@@H](Cc2ccc(O)cc2)C(=O)N[C@@H](Cc2c[nH]c3ccccc23)C(=O)N[C@@H](C)C(=O)N[C@@H](CCC(N)=O)C(=O)N[C@@H](CC2CCC2)C(=O)N1)C(=O)N[C@H](C)C(N)=O` [compound 272] (Ac-ETF[R8]EYWAQ[Cba][S5]AW[Nle][dA]-NH2; staple 4-11), the IC50 in test [1] was less than 10 nM; in test [2], 10 to 100 nM. Moreover, the Ki in test [1] and in test [2] was less than 10 nM throughout.

`CCCC[C@H](NC(=O)[C@H](Cc1c[nH]c2ccccc12)NC(=O)[C@H](C)NC(=O)[C@]1(C)CCCC=CCCCCCC[C@@](C)(NC(=O)[C@H](Cc2ccccc2)NC(=O)[C@@H](NC(=O)[C@H](CCC(=O)O)NC(C)=O)[C@@H](C)O)C(=O)N[C@@H](C)C(=O)N[C@@H](Cc2ccc(O)cc2)C(=O)N[C@@H](Cc2c[nH]c3ccccc23)C(=O)N[C@@H](C)C(=O)N[C@@H](CCC(N)=O)C(=O)N[C@@H](CC(C)C)C(=O)N1)C(=O)N[C@H](C)C(N)=O` [compound 276] (Ac-ETF[R8]AYWAQL[S5]AW[Nle][dA]-NH2; staple 4-11): in test [1], the IC50 lay in the range of 10 to 100 nM and the Ki is less than 10 nM. Further, in test [2], the IC50 was 10 to 100 nM and the Ki was less than 10 nM.

Turning to `CCCC[C@H](NC(=O)[C@H](Cc1c[nH]c2ccccc12)NC(=O)[C@H](C)NC(=O)[C@]1(C)CCCC=CCCCCCC[C@@](C)(NC(=O)[C@H](Cc2ccccc2)NC(=O)[C@@H](NC(=O)[C@H](CC(C)C)NC(C)=O)[C@@H](C)O)C(=O)N[C@@H](CCC(=O)O)C(=O)N[C@@H](Cc2ccc(O)cc2)C(=O)N[C@@H](Cc2c[nH]c3ccccc23)C(=O)N[C@@H](C)C(=O)N[C@@H](CCC(N)=O)C(=O)N[C@@H](CC(C)C)C(=O)N1)C(=O)N[C@H](C)C(N)=O` [compound 277] (Ac-LTF[R8]EYWAQL[S5]AW[Nle][dA]-NH2; staple 4-11), in test [1], the IC50 was in the range of 10 to 100 nM and the Ki was less than 10 nM. Besides, in test [2], the IC50 lay in the range of 10 to 100 nM and the Ki is less than 10 nM.
